The record followed here is patent US20160015770A1, “COMPOSITIONS FOR TREATMENT OF RETINAL DETACHMENT” (THE REGENTS OF THE UNIVERSITY OF MICHIGAN, priority 2013, published 2016).

One experiment deals with T1, calpain 1 (Rattus norvegicus, UniProt P97571).
T1 construct: Retinas from experimental eyes with detachment (detached portion of retina only) and control eyes without detachment were dissected from the RPE-choroid, homogenized, and lysed; from tissue; host or cells: rat retina (in vivo retinal detachment model)
T1 sequence (P97571 1-713): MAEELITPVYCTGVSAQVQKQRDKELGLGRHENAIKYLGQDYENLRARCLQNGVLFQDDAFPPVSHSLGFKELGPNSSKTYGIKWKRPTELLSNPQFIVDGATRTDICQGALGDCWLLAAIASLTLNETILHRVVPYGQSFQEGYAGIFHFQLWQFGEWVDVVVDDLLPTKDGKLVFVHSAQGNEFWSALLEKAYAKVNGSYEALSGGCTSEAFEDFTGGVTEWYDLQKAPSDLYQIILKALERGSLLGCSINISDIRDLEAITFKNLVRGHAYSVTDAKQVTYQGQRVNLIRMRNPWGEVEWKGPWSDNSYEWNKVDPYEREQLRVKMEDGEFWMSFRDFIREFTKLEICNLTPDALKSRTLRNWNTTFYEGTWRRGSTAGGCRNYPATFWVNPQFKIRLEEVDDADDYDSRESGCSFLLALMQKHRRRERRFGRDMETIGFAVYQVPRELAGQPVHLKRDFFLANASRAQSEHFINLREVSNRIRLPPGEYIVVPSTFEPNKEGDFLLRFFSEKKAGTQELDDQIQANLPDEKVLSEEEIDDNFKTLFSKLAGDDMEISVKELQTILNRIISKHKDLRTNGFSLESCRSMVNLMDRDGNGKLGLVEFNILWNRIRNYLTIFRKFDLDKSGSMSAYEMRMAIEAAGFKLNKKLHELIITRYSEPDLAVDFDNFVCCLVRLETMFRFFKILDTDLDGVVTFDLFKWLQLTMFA
T1 sequence (Q64537 1-270 partner): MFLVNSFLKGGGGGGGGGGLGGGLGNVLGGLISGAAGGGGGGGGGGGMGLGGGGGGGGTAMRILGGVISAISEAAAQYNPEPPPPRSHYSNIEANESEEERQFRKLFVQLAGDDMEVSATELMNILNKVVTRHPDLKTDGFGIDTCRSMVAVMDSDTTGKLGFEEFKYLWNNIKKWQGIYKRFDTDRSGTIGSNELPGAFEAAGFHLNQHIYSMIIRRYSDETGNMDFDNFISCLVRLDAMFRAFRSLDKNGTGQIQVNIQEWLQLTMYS
As to the kind of experiment: Experimental retinal detachment, western blot of calpain 1 specific cleaved alpha-spectrin in retina. The format is in vivo. The conditions noted are these: 0.2 μg subretinal at time of detachment, 7 days after detachment, vs vehicle (DMSO).

Another experiment deals with caspase 8. As to the kind of experiment: Caspase 8 activity luminescent assay in Fas-activated 661W cells. The format is cell-based, mouse. The procedure:
Caspase 8 activity was measured by a commercially available luminescent cleavage assay kit (Promega, Madison, Wis.). The 661W cells were seeded in 96-well plates at 2,000 cells/well for 24 hours before treatment. Cells were treated with 500 ng/mL Fas-agonistic Jo2 monoclonal antibody and various concentrations of calpeptin or equal volume of DMSO. Caspase 8 activity was measured at 48 hours by incubating the cells with the proluminescent substrate in 96-well plates according to the manufacturer's instructions. Controls included untreated cells and wells with no cells. Luminescence was measured in a plate reader luminometer (Turner Biosystems, Sunnyvale, Calif.).

The structures appear in SMILES notation. “Also recorded” adds a separate entry of the source.

Description for calpain 1: Detachments were created in adult male Brown-Norway rats (300-400 g; Charles River Laboratories, Wilmington, Mass.) as described previously. Briefly, rodents were anesthetized with a 50:50 mix of ketamine/xylazine, and pupils were dilated with topical phenylephrine (2.5%) and tropicamide (1%). A 20-gauge microvitreoretinal blade was used to create a sclerotomy 2 mm posterior to the limbus, carefully avoiding lens damage. A subretinal injector (Glaser, 32-gauge tip; BD Ophthalmic Systems, Franklin Lakes, N.J.) was introduced through the sclerotomy into the vitreous cavity and then through a peripheral retinotomy into the subretinal space. […]
Retinas from experimental eyes with detachment (detached portion of retina only) and control eyes without detachment were dissected from the RPE-choroid, homogenized, and lysed in buffer containing 10 mM HEPES (pH 7.6), 0.5% IgEPal, 42 mM KCl, 1 mM phenylmethylsulfonyl fluoride, 1 mM EDTA, 1 mM EGTA, 1 mM dithiothreitol, 5 mM MgCl2, and one tablet of protease inhibitors per 10 mL buffer (Complete Mini; Roche Diagnostics GmbH, Madison, Wis.). […] The protein concentration of the supernatant was then determined (DC Protein Assay kit; Bio-Rad Laboratories, Hercules, Calif.). The protein samples were separated on SDS-polyacrylamide gels (Tris-HCl Ready Gels; Bio-Rad Laboratories). […]

On to `CCCC[C@@H](C=O)NC(=O)[C@H](CC(C)C)NC(=O)OCc1ccccc1` [calpeptin], for which, at calpain 1, the “cleaved calpain 1 specific alpha-spectrin in retina” value is listed as “significantly less; also recorded: less cleaved alpha-spectrin”. Also, the “caspase 8 activity” value is “no effect” in the experiment with caspase 8 (661W cells not treated with Fas activating antibody, calpeptin alone); “little effect” in the experiment on caspase 8 (661W cells, Fas activating antibody 48 hours, 1 μM); “returned caspase 8 activity to baseline levels; also recorded: significantly reduced its activity back to baseline” in the experiment on caspase 8 (661W cells, Fas activating antibody 48 hours, 10 uM); “returned caspase 8 activity to baseline levels; also recorded: significantly reduced its activity back to baseline” in the experiment on caspase 8 (661W cells, Fas activating antibody 48 hours, 25 uM).
